From patent publication US20250059198A1, “BRM DEGRADING COMPOUNDS AND ASSOCIATED METHODS OF USE” (Arvinas Operations, Inc., priority 2021, published 2025)

Molecular target: T1, BRM (Homo sapiens, UniProt P51531)
T1 construct: Western Blot Screen of BRM Degradation in SW1573 Cells; endogenous in cells; host or cells: SW1573 cells
Test: BRM degradation (Dmax and DC50) in SW1573 cells, Western blot screen / In-Cell Western screen
Format: cell-based
Conditions: overnight (18-20 hours) treatment; for Dmax: read-out: Dmax (%)** (% degraded)
Method in brief: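 SW1573 cells were treated with compound for 18–20 h (final 0.1% DMSO). BRM was quantified either by Western blot of RIPA lysates or by fixed-cell In-Cell Western (LI-COR, 800/680 nm), each normalised to alpha-tubulin, giving Dmax and DC50.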

T1 sequence (P51531 whole entry): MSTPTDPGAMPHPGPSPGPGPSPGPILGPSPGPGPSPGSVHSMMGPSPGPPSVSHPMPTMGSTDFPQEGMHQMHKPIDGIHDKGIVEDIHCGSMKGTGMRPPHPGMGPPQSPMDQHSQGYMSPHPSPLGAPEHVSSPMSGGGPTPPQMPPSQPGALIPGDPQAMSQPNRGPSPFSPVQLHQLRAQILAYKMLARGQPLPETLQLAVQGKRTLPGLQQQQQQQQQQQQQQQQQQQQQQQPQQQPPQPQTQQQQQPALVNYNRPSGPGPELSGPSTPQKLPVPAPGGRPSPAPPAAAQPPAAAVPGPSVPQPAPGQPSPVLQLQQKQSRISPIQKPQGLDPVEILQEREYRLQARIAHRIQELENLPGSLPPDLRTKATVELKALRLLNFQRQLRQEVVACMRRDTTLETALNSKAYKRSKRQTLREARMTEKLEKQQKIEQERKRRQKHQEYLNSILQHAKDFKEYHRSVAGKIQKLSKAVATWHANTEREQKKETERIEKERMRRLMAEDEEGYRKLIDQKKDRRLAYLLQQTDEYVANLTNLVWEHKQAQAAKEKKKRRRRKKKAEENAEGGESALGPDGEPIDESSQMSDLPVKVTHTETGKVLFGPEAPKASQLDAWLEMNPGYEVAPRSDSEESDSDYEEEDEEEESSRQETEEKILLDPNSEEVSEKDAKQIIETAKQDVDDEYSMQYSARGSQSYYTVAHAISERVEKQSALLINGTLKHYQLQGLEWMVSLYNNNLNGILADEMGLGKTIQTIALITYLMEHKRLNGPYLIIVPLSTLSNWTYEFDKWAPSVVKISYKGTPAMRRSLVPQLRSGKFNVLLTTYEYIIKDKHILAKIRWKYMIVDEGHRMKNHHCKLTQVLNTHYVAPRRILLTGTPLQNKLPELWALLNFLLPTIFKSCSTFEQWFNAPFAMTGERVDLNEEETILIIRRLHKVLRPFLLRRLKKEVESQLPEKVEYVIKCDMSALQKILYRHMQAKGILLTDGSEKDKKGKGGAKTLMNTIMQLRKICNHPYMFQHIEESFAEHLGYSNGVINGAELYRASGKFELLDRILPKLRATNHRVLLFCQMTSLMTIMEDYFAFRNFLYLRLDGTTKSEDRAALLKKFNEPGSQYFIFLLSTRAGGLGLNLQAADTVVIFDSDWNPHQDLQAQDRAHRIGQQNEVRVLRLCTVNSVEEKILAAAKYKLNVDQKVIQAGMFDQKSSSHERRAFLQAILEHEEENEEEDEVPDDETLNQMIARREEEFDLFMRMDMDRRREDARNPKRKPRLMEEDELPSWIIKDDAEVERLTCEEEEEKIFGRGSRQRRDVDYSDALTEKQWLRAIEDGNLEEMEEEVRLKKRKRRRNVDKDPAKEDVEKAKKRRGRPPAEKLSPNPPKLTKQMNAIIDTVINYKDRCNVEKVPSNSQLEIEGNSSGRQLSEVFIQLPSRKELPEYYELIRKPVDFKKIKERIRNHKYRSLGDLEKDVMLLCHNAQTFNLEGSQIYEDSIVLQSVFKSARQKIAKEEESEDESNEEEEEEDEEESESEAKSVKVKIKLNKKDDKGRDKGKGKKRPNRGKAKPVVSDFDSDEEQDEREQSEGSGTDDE

Structure (SMILES) | DC50 [nM] | Dmax [%]
CC(C)[C@@H](C(=O)N1C[C@H](O)C[C@H]1C(=O)N[C@@H](C)c1ccc(-c2ccnn2C)cc1)c1cc(N2CCC(CN3CCC(O[C@H]4C[C@H](N5CCC(C(C)n6cc(C#Cc7cc(-c8ccccc8O)nnc7N)cn6)CC5)C4)CC3)CC2)no1 (stereo partly drawn) [Compound 42, (2S,4R)-4-hydroxy-N-[(1S)-1-[4-(1-methyl-1H-pyrazol-5-yl)phenyl]ethyl]-1-[(2R)-3-methyl-2-{3-[4-({4-[(1r,3r)-3-{4-[1-(4-{2-[3-amino-6-(2-hydroxyphenyl)pyridazin-4-yl]ethynyl}-1H-pyrazol-1-yl)ethyl]piperidin-1-yl}cyclobutoxy]piperidin-1-yl}methyl)piperidin-1-yl]-1,2-oxazol-5-yl}butanoyl]pyrrolidine-2-carboxamide] | < 2.5 | > 75
Cc1ncsc1-c1ccc([C@H](C)NC(=O)[C@@H]2C[C@@H](O)CN2C(=O)[C@@H](c2cc(N3CCC(CN4CCC5(CC4)CC(N4CCO[C@H]([C@@H](C)n6cc(C#Cc7cc(-c8ccccc8O)nnc7N)cn6)C4)C5)CC3)no2)C(C)C)cc1 [Compound 98, (2S,4R)-1-[(2R)-2-{3-[4-({2-[(2S)-2-[(1R)-1-(4-{2-[3-amino-6-(2-hydroxyphenyl)pyridazin-4-yl]ethynyl}-1H-pyrazol-1-yl)ethyl]morpholin-4-yl]-7-azaspiro[3.5]nonan-7-yl}methyl)piperidin-1-yl]-1,2-oxazol-5-yl}-3-methylbutanoyl]-4-hydroxy-N-[(1S)-1-[4-(4-methyl-1,3-thiazol-5-yl)phenyl]ethyl]pyrrolidine-2-carboxamide] | < 2.5 | > 75
Cc1ncsc1-c1ccc([C@H](C)NC(=O)C2C[C@@H](O)CN2C(=O)[C@@H](c2cc(N3CCC(CN4CC[C@H](Oc5cc(N6C7CCC6CN(c6cc(-c8ccccc8O)nnc6N)C7)ccn5)[C@H](F)C4)CC3)no2)C(C)C)cc1 (stereo in doubt) [Compound 50, (2S,4R)-1-[(2R)-2-[3-(4-{[(3R,4S)-4-[(4-{3-[3-amino-6-(2-hydroxyphenyl)pyridazin-4-yl]-3,8-diazabicyclo[3.2.1]octan-8-yl}pyridin-2-yl)oxy]-3-fluoropiperidin-1-yl]methyl}piperidin-1-yl)-1,2-oxazol-5-yl]-3-methylbutanoyl]-4-hydroxy-N-[(1S)-1-[4-(4-methyl-1,3-thiazol-5-yl)phenyl]ethyl]pyrrolidine-2-carboxamide] | < 2.5 | > 75
CC(C)[C@@H](C(=O)N1C[C@H](O)C[C@H]1C(=O)N[C@@H](C)c1ccc(-c2ccnn2C)cc1)c1cc(N2CCC(CN3CCC(O[C@H]4C[C@H](Oc5cc(/C=C(\F)c6cc(-c7ccccc7O)nnc6N)ccn5)C4)CC3)CC2)no1 [Compound 51, (2S,4R)-4-hydroxy-N-[(1S)-1-[4-(1-methyl-1H-pyrazol-5-yl)phenyl]ethyl]-1-[(2R)-3-methyl-2-{3-[4-({4-[(1r,3r)-3-[(4-{2-[3-amino-6-(2-hydroxyphenyl)pyridazin-4-yl]-2-fluoroethenyl}pyridin-2-yl)oxy]cyclobutoxy]piperidin-1-yl}methyl)piperidin-1-yl]-1,2-oxazol-5-yl}butanoyl]pyrrolidine-2-carboxamide] | < 2.5 | > 75
CC(C)[C@@H](C(=O)N1C[C@H](O)C[C@H]1C(=O)N[C@@H](C)c1ccc(-c2ccnn2C)cc1)c1cc(N2CCC(CN3CCC(O[C@H]4C[C@H](Oc5cc(/C=C/c6cc(-c7ccccc7O)nnc6N)ccn5)C4)CC3)CC2)no1 [Compound 30, (2S,4R)-4-hydroxy-N-[(1S)-1-[4-(1-methyl-1H-pyrazol-5-yl)phenyl]ethyl]-1-[(2R)-3-methyl-2-{3-[4-({4-[(1r,3r)-3-({4-[(1E)-2-[3-amino-6-(2-hydroxyphenyl)pyridazin-4-yl]ethenyl]pyridin-2-yl}oxy)cyclobutoxy]piperidin-1-yl}methyl)piperidin-1-yl]-1,2-oxazol-5-yl}butanoyl]pyrrolidine-2-carboxamide] | < 2.5 | > 75
Cc1ncsc1-c1ccc([C@H](C)NC(=O)[C@@H]2C[C@@H](O)CN2C(=O)C(c2cc(N3CCC(OC(=O)N4CCC(Oc5cc(N6CCN(c7cc(-c8ccccc8O)nnc7N)CC6)ccn5)CC4)CC3)no2)C(C)C)cc1 (stereo partly drawn) [Compound 144, 1-(5-{1-[(2S,4R)-4-hydroxy-2-{[(1S)-1-[4-(4-methyl-1,3-thiazol-5-yl)phenyl]ethyl]carbamoyl}pyrrolidin-1-yl]-3-methyl-1-oxobutan-2-yl}-1,2-oxazol-3-yl)piperidin-4-yl 4-[(4-{4-[3-amino-6-(2-hydroxyphenyl)pyridazin-4-yl]piperazin-1-yl}pyridin-2-yl)oxy]piperidine-1-carboxylate] | 2.5 to 10 | > 75
Cc1ncsc1-c1ccc([C@H](C)NC(=O)[C@@H]2C[C@@H](O)CN2C(=O)[C@@H](c2cc(N3CCC(CN4CCC(O[C@H]5C[C@H](CN6CCC(N7C8CCC7CN(c7cc(-c9ccccc9O)nnc7N)C8)CC6)C5)CC4)CC3)no2)C(C)C)cc1 [Compound 24, (2S,4R)-4-hydroxy-N-[(1S)-1-[4-(4-methyl-1,3-thiazol-5-yl)phenyl]ethyl]-1-[(2R)-3-methyl-2-{3-[4-({4-[(1r,3r)-3-[(4-{3-[3-amino-6-(2-hydroxyphenyl)pyridazin-4-yl]-3,8-diazabicyclo[3.2.1]octan-8-yl}piperidin-1-yl)methyl]cyclobutoxy]piperidin-1-yl}methyl)piperidin-1-yl]-1,2-oxazol-5-yl}butanoyl]pyrrolidine-2-carboxamide] | < 2.5 | > 75
Cc1ncsc1-c1ccc([C@H](C)NC(=O)[C@@H]2C[C@@H](O)CN2C(=O)[C@@H](c2cc(N3CCC(CN4CCC(O[C@H]5C[C@H](N6CCC(Cc7cnn(-c8cc(-c9ccccc9O)nnc8N)c7)CC6)C5)CC4)CC3)no2)C(C)C)cc1 [Compound 105, (2S,4R)-4-hydroxy-N-[(1S)-1-[4-(4-methyl-1,3-thiazol-5-yl)phenyl]ethyl]-1-[(2R)-3-methyl-2-{3-[4-({4-[(1r,3r)-3-[4-({1-[3-amino-6-(2-hydroxyphenyl)pyridazin-4-yl]-1H-pyrazol-4-yl}methyl)piperidin-1-yl]cyclobutoxy]piperidin-1-yl}methyl)piperidin-1-yl]-1,2-oxazol-5-yl}butanoyl]pyrrolidine-2-carboxamide] | < 2.5 | > 75
Cc1ncsc1-c1ccc([C@H](C)NC(=O)[C@@H]2C[C@@H](O)CN2C(=O)[C@@H](c2cc(N3CCC(CN4CCC5(CC4)CC(C#CC(C)n4cc(-c6cc(-c7ccccc7O)nnc6N)cn4)C5)CC3)no2)C(C)C)cc1 (stereo partly drawn) [Compound 36, (2S,4R)-1-[(2R)-2-[3-(4-{[2-(3-{4-[3-amino-6-(2-hydroxyphenyl)pyridazin-4-yl]-1H-pyrazol-1-yl}but-1-yn-1-yl)-7-azaspiro[3.5]nonan-7-yl]methyl}piperidin-1-yl)-1,2-oxazol-5-yl]-3-methylbutanoyl]-4-hydroxy-N-[(1S)-1-[4-(4-methyl-1,3-thiazol-5-yl)phenyl]ethyl]pyrrolidine-2-carboxamide] | < 2.5 | > 75
Cc1ncsc1-c1ccc([C@H](C)NC(=O)[C@@H]2C[C@@H](O)CN2C(=O)C(c2cc(N3CCC(OC(=O)N4CCC(O[C@H]5C[C@H](Oc6cc(N7CCN(c8cc(-c9ccccc9O)nnc8N)CC7)ccn6)C5)CC4)CC3)no2)C(C)C)cc1 (stereo partly drawn) [Compound 145, 1-(5-{1-[(2S,4R)-4-hydroxy-2-{[(1S)-1-[4-(4-methyl-1,3-thiazol-5-yl)phenyl]ethyl]carbamoyl}pyrrolidin-1-yl]-3-methyl-1-oxobutan-2-yl}-1,2-oxazol-3-yl)piperidin-4-yl 4-[(1r,3r)-3-[(4-{4-[3-amino-6-(2-hydroxyphenyl)pyridazin-4-yl]piperazin-1-yl}pyridin-2-yl)oxy]cyclobutoxy]piperidine-1-carboxylate] | 2.5 to 10 | > 75
CC(C)[C@H](C(=O)N1C[C@H](O)C[C@H]1C(=O)N[C@@H](C)c1ccc(C#N)cc1)c1cc(N2CCN(C(=O)N3CCC(O[C@H]4C[C@H](Oc5cc(N6C7CCC6CN(c6cc(-c8ccccc8O)nnc6N)C7)ccn5)C4)CC3)CC2)no1 [Compound 139, (2S,4R)-N-[(1S)-1-(4-cyanophenyl)ethyl]-4-hydroxy-1-[(2S)-3-methyl-2-[3-(4-{4-[(1r,3r)-3-[(4-{3-[3-amino-6-(2-hydroxyphenyl)pyridazin-4-yl]-3,8-diazabicyclo[3.2.1]octan-8-yl}pyridin-2-yl)oxy]cyclobutoxy]piperidine-1-carbonyl}piperazin-1-yl)-1,2-oxazol-5-yl]butanoyl]pyrrolidine-2-carboxamide] | ≥ 30 | –
Cc1ncsc1-c1ccc([C@H](C)NC(=O)[C@@H]2C[C@@H](O)CN2C(=O)[C@@H](c2cc(N3CCC(CN4CC[C@H](OC(=O)N5CCN(c6cc(-c7ccccc7O)nnc6N)CC5)[C@H](F)C4)CC3)no2)C(C)C)cc1 [Compound 103, (3R,4S)-3-fluoro-1-[(1-{5-[(2R)-1-[(2S,4R)-4-hydroxy-2-{[(1S)-1-[4-(4-methyl-1,3-thiazol-5-yl)phenyl]ethyl]carbamoyl}pyrrolidin-1-yl]-3-methyl-1-oxobutan-2-yl]-1,2-oxazol-3-yl}piperidin-4-yl)methyl]piperidin-4-yl 4-[3-amino-6-(2-hydroxyphenyl)pyridazin-4-yl]piperazine-1-carboxylate] | < 2.5 | > 75
CC(C)[C@H](C(=O)N1C[C@H](O)C[C@H]1C(=O)N[C@@H](C)c1ccc(-c2ccnn2C)cc1)c1cc(N2CCC(CN3CCC(CN4CCC5(CC4)CC(Oc4cc(N6C7CCC6CN(c6cc(-c8ccccc8O)nnc6N)C7)ccn4)C5)CC3)CC2)no1 [Compound 33, (2S,4R)-1-[(2S)-2-[3-(4-{[4-({2-[(4-{3-[3-amino-6-(2-hydroxyphenyl)pyridazin-4-yl]-3,8-diazabicyclo[3.2.1]octan-8-yl}pyridin-2-yl)oxy]-7-azaspiro[3.5]nonan-7-yl}methyl)piperidin-1-yl]methyl}piperidin-1-yl)-1,2-oxazol-5-yl]-3-methylbutanoyl]-4-hydroxy-N-[(1S)-1-[4-(1-methyl-1H-pyrazol-5-yl)phenyl]ethyl]pyrrolidine-2-carboxamide] | 10 to 30 | > 75
